Assay [1] deals with T1, Androgen Receptor, MDA-PCa-2b (AR T878A/L702H) (Homo sapiens, UniProt P10275, L702H/T878A).
T1 construct: host or cells: MDA-PCa-2b
T1 sequence (P10275 1-920 L702H/T878A): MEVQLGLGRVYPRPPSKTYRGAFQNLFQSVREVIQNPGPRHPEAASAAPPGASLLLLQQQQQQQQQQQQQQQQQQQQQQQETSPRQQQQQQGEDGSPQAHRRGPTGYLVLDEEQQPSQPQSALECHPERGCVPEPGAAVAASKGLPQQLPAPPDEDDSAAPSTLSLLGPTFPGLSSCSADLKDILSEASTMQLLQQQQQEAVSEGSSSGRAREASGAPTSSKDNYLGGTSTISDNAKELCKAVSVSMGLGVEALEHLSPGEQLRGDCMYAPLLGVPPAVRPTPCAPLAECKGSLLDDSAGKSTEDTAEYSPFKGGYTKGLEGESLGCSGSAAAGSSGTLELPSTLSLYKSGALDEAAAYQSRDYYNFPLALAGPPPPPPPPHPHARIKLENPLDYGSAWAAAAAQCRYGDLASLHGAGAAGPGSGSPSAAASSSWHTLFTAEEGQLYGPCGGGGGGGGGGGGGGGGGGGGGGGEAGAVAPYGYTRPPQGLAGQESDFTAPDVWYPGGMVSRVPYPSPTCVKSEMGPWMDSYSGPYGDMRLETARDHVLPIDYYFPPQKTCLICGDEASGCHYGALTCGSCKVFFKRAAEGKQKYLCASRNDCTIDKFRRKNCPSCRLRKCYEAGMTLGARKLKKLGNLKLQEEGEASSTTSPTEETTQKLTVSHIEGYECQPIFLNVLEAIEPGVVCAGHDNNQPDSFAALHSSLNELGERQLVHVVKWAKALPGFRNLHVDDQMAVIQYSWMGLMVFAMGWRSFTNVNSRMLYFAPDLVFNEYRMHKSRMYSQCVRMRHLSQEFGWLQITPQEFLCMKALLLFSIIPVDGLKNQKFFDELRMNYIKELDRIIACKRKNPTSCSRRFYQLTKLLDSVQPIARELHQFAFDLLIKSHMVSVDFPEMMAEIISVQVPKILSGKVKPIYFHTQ
The assay is described as follows: Androgen Receptor Degradation-Imaging Assay, MDA-PCa-2b cell line. It counts as cell-based. The following applies: 16 hours treatment, maximum observed degradation. How it is done:
(§1) Degradation of Androgen Receptor (AR) protein in human prostate cancer cell lines (MDA-PCa-2b (AR T878A/L702H), LNCaP (AR T878A), VCaP (AR wild type and amplified) 22RV1 (AR H875Y) and PC3 (AR negative control)) treated with AR PROTACs was quantified using immunofluorescence. Prostate cancer cells were plated (MDA-PCa-2b, and VCaP 16,000 cells/well; LNCaP and 22RV1 32,000 cells/well, and PC3 8,000 cells/well) in an optical bottom 96-well cell culture plate and allowed to attach overnight. The prostate cancer cell lines were treated for 16 hours with a 10-point 3-fold dilution series (dose range=0.02 nM to 333 nM). PC3 is included as an AR negative control and not treated with compound. Cells are fixed and permeabilized with 4% formaldehyde, blocked with 10% goat serum in immunofluorescence (IF) buffer (130 mM NaCl, 7 mM Na2HPO4, 3.5 mM NaH2PO4, 7.7 mM NaN3, 0.1% BSA, 0.2% Triton X, 0.05% Tween 20) prior to overnight incubation with rabbit antibody specific for C terminus of AR (commercially available from RevMaB Biosciences). Following washes with IF buffer, cells were incubated with fluorescent secondary antibody (Goat anti-rabbit Alexa 647; commercially available from Invitrogen) and Hoechst nuclear stain (commercially available from Themo Scientific) prior to quantification of nuclear AR levels via Opera Phenix high-content fluorescent imager using a 40× water objective. Image analysis was performed with Harmony software.
(§2) The averaged nuclear Alexa 647 median fluorescence intensity (MFI) of PC3 cells is subtracted from the nuclear Alexa 647 MFI of PROTAC treated and DMSO control treated cells. % AR remaining is calculated for PROTAC treatments as a percent of the DMSO control (MFI PROTAC treated/MFI DMSO control treated)*100). DC50 and the Dmax values, were obtained from these normalised values fitted with a 4-parameter sigmoidal response curve (Xlfit software). The DC50 is the interpolated concentration of PROTAC corresponding to 50% of the protein being degraded, and the Dmax parameter is the maximum experimentally observed degradation.

Assay [2] concerns the target T2, Androgen Receptor, VCaP (AR wild type and amplified) (Homo sapiens, UniProt P10275).
T2 construct: endogenous in cells; host or cells: VCaP
T2 sequence (P10275 1-920): T1 sequence (P10275 1-920 L702H/T878A) with H702L, A878T
Briefly: Androgen Receptor Degradation-Imaging Assay, VCaP cell line. It counts as cell-based. The following applies: 16 hours treatment, maximum observed degradation. How it is done:
as §1, §2

Our source for the Dmax values is patent publication US12577231B2, “Androgen receptor PROTACS” (GlaxoSmithKline Intellectual Property Development Limited, priority 2023, dated 2026).

Substitutions are numbered along the chain they refer to.

A word on the Dmax: it is the greatest extent of degradation seen. Low readings indicate a partial loss of target, high ones a fuller loss of target.

Regarding `CC1(C)[C@H](NC(=O)c2ccc(N3CCC(O)(CN4CCC(n5ncc6c(N7CCC(=O)NC7=O)cccc65)CC4)CC3)c(F)c2)C(C)(C)[C@H]1Oc1ccc(C#N)c2ncccc12` [Example 48, N-((1r,3r)-3-((8-Cyanoquinolin-5-yl)oxy)-2,2,4,4-tetramethylcyclobutyl)-4-(4-((4-(4-(2,4-dioxotetrahydropyrimidin-1(2H)-yl)-1H-indazol-1-yl)piperidin-1-yl)methyl)-4-hydroxypiperidin-1-yl)-3-fluorobenzamide], the Dmax in assay [1] and in assay [2] was at least 80% in each case.

As for `CC1(C)[C@H](NC(=O)c2ccc(N3CCC(CN4CCC(n5ncc6c(N7CCC(=O)NC7=O)cccc65)CC4)CC3)c(F)c2)C(C)(C)[C@H]1Oc1ccc(C#N)c2c1CCCO2` [Example 8, N-((1r,3r)-3-((8-Cyanochroman-5-yl)oxy)-2,2,4,4-tetramethylcyclobutyl)-4-(4-((4-(4-(2,4-dioxotetrahydropyrimidin-1(2H)-yl)-1H-indazol-1-yl)piperidin-1-yl)methyl)piperidin-1-yl)-3-fluorobenzamide], the Dmax in assay [1] and in assay [2] was at least 80% each time.

Turning to `CC1(C)[C@H](NC(=O)c2ccc(N3CCC(CN4CCC(n5ccc6c(N7CCC(=O)NC7=O)cccc65)CC4)CC3)cc2)C(C)(C)[C@H]1Oc1ccc(C#N)c2ncccc12` [Example 43, N-((1r,3r)-3-((8-Cyanoquinolin-5-yl)oxy)-2,2,4,4-tetramethylcyclobutyl)-4-(4-((4-(4-(2,4-dioxotetrahydropyrimidin-1(2H)-yl)-1H-indol-1-yl)piperidin-1-yl)methyl)piperidin-1-yl)benzamide], the Dmax in assay [1] and in assay [2] was at least 80% in each case.

Take `CC1(C)[C@H](NC(=O)c2ccc(N3CCC(CN4CCC(n5ncc6c(N7CCC(=O)NC7=O)cccc65)CC4)CC3)c(F)c2)C(C)(C)[C@H]1Oc1ccc(C#N)c2ncccc12` [Example 6, N-((1r,3r)-3-((8-Cyanoquinolin-5-yl)oxy)-2,2,4,4-tetramethylcyclobutyl)-4-(4-((4-(4-(2,4-dioxotetrahydropyrimidin-1(2H)-yl)-1H-indazol-1-yl)piperidin-1-yl)methyl)piperidin-1-yl)-3-fluorobenzamide]: the Dmax in assay [1] and in assay [2] was at least 80% throughout.

As for `COc1cc(O[C@H]2C(C)(C)[C@H](NC(=O)c3ccc(N4CCC(CN5CCC(n6ncc7c(N8CCC(=O)NC8=O)cccc76)CC5)CC4)cc3)C2(C)C)ccc1C#N` [Example 15, N-((1r,3r)-3-(4-Cyano-3-methoxyphenoxy)-2,2,4,4-tetramethylcyclobutyl)-4-(4-((4-(4-(2,4-dioxotetrahydropyrimidin-1(2H)-yl)-1H-indazol-1-yl)piperidin-1-yl)methyl)piperidin-1-yl)benzamide], the Dmax in assay [1] and in assay [2] was at least 80% throughout.

Take `COc1cc(O[C@H]2C(C)(C)[C@H](NC(=O)c3ccc(N4CCC(CN5CCC(n6ncc7c(N8CCC(=O)NC8=O)nccc76)CC5)CC4)c(F)c3)C2(C)C)ccc1C#N` [Example 20, N-((1r,3r)-3-(4-Cyano-3-methoxyphenoxy)-2,2,4,4-tetramethylcyclobutyl)-4-(4-((4-(4-(2,4-dioxotetrahydropyrimidin-1(2H)-yl)-1H-pyrazolo[4,3-c]pyridin-1-yl)piperidin-1-yl)methyl)piperidin-1-yl)-3-fluorobenzamide]: the Dmax in assay [1] and in assay [2] was at least 80% in each case.

On to `CC1(C)[C@H](NC(=O)c2ccc(N3CCC(CN4CCC(n5ccc6c(N7CCC(=O)NC7=O)ncnc65)CC4)CC3)cc2)C(C)(C)[C@H]1Oc1ccc(C#N)c2ncccc12` [Example 28, N-((1r,3r)-3-((8-Cyanoquinolin-5-yl)oxy)-2,2,4,4-tetramethylcyclobutyl)-4-(4-((4-(4-(2,4-dioxotetrahydropyrimidin-1(2H)-yl)-7H-pyrrolo[2,3-d]pyrimidin-7-yl)piperidin-1-yl)methyl)piperidin-1-yl)benzamide], for which the Dmax in assay [1] and in assay [2] was at least 80% throughout.

Turning to `COc1c(C#N)ccc(O[C@H]2C(C)(C)[C@H](NC(=O)c3ccc(N4CCC(CN5CCC(n6ncc7c(N8CCC(=O)NC8=O)cccc76)CC5)CC4)c(F)c3)C2(C)C)c1C` [Example 5, N-((1r,3r)-3-(4-Cyano-3-methoxy-2-methylphenoxy)-2,2,4,4-tetramethylcyclobutyl)-4-(4-((4-(4-(2,4-dioxotetrahydropyrimidin-1(2H)-yl)-1H-indazol-1-yl)piperidin-1-yl)methyl)piperidin-1-yl)-3-fluorobenzamide], the Dmax in assay [1] and in assay [2] was at least 80% throughout.

As for `CC1(C)[C@H](NC(=O)c2ccc(N3CCC(CN4CCC(n5ccc6c(N7CCC(=O)NC7=O)cccc65)CC4)CC3)c(F)c2)C(C)(C)[C@H]1Oc1ccc(C#N)c2ncccc12` [Example 31, N-((1r,3r)-3-((8-Cyanoquinolin-5-yl)oxy)-2,2,4,4-tetramethylcyclobutyl)-4-(4-((4-(4-(2,4-dioxotetrahydropyrimidin-1(2H)-yl)-1H-indol-1-yl)piperidin-1-yl)methyl)piperidin-1-yl)-3-fluorobenzamide], the Dmax in assay [1] and in assay [2] was at least 80% each time.

In the case of `CC1(C)[C@H](NC(=O)c2ccc(N3CCC(CN4CCC(n5ncc6c(N7CCC(=O)NC7=O)ccnc65)CC4)CC3)c(F)c2)C(C)(C)[C@H]1Oc1ccc(C#N)c2ncccc12` [Example 40, N-((1r,3r)-3-((8-Cyanoquinolin-5-yl)oxy)-2,2,4,4-tetramethylcyclobutyl)-4-(4-((4-(4-(2,4-dioxotetrahydropyrimidin-1(2H)-yl)-1H-pyrazolo[3,4-b]pyridin-1-yl)piperidin-1-yl)methyl)piperidin-1-yl)-3-fluorobenzamide], the Dmax in assay [1] and in assay [2] was at least 80% each time.
